One molecule from publication PMC6572184, “New γ-Halo-δ-lactones and δ-Hydroxy-γ-lactones with Strong Cytotoxic Activity” (Molecules, 2019) can be followed below.

One series concerns Escherichia coli ATCC 8739. As to the kind of experiment: Bactericidal activity, CFU counting method. The series is classed as cell-based. The settings on record: E. coli ATCC 8739; 18 h at 37 °C; Control 9.47, Control with DMSO 9.30. As to the method:
(§1) The bacterial cultures: Escherichia coli ATCC 8739 and Staphylococcus aureus ATCC 65389 were grown on Luria–Bertani Agar for 18 h at 37 ^∘ C. The strain suspension was prepared in 0.85% saline, with an optical density equivalent to a 0.5 McFarland standard. Next, the following mixtures were prepared: 180 μ L of sterile enriched broth (BTL), 10 μ L of the bacterial suspension and 10 μ L of the tested compound (range 0.1–50 μ g/mL) solubilized in DMSO. As a negative control, only DMSO was added. As a sterility control, 180 μ L of BTL and 20 μ L saline were used. The microtiter plate was incubated at 37 ^∘ C for 18 h. The colony forming unit (CFU) method was used to evaluate the microbial population. The experiment was repeated three times. Gentamicin was used as the reference antibiotic.
Consider `C[C@@H]1CC(=O)O[C@H](c2cccc3ccccc23)[C@H]1Cl` (relative stereo) [5a, Trans,trans-5-chloro-tetrahydro-4-methyl-6-(naphthalen-1-yl)pyran-2-one], for which the “Number of CFU/mL (× 10^7)” value is 6.41 × 10^7 CFU/mL.

The test system of a further series is Staphylococcus aureus ATCC 65389. In words: Bactericidal activity, CFU counting method. The series is classed as cell-based. The following applies: S. aureus ATCC 65389; 18 h at 37 °C; Control 21.36, Control with DMSO 20.85. As to the method:
as §1
As to `C[C@@H]1CC(=O)O[C@H](c2cccc3ccccc23)[C@H]1Cl` (relative stereo) [5a, Trans,trans-5-chloro-tetrahydro-4-methyl-6-(naphthalen-1-yl)pyran-2-one], the “Number of CFU/mL (× 10^7)” value is listed as 2.74 × 10^7 CFU/mL.

Still in this series, the particulars now being: S. aureus ATCC 65389; versus control.
On to `C[C@@H]1CC(=O)O[C@H](c2cccc3ccccc23)[C@H]1Cl` (relative stereo) [5a, Trans,trans-5-chloro-tetrahydro-4-methyl-6-(naphthalen-1-yl)pyran-2-one], for which the “less CFU/mL (reduction of the number of CFU/mL)” value is reported as 87%.

Test system in a further series: not listed separately
As to the kind of experiment: MTT reduction cytotoxicity assay. The series is classed as cell-based, human. The following applies: human, AGS cells (human gastric adenocarcinoma), 0.1 μg/mL, 24 h, read-out: mean percentage of viable cells ± SD. Here is the method: (§2) Cell cultures: The L929 mouse fibroblasts and human gastric adenocarcinoma cell line AGS were used for in vitro cytotoxicity assays. The cells were maintained under standard conditions (37 ^∘ C, 5% CO 2 ) in 25 cm^2 tissue culture flasks in RPMI-1640 medium supplemented with 10% fetal bovine serum (FBS) and antibiotics: 100 U/mL penicillin and 100 μ g/mL streptomycin. The cell suspension containing 10 ^8 cells in 1 mL, was obtained by treatment of confluent monolayers with 0.25% trypsin solution, washed and subcultured. Cell cultures were supplemented with medium to maintain them in log phase growth. The viability of the cells was assessed by exclusion of trypan blue dye.
(§3) Measurements of cellular metabolic activity and global growth inhibition: L929 cells were seeded into 96-well plates (2 × 10 ^5 cells/well) for 24 h, at 37 ^∘ C, 5% CO2 . Tested compounds 5a–c, 6a–c, 7a–c, 8a–c, 9b,c, 10b,c, 12a and 13a were diluted serially in RPMI-1640 medium in concentrations of 50, 20, 10, 5, 0.5 and 0.1 μ g/mL, added to the cells (100 μ L/well), and incubated under standard conditions for 24 h. The potential harmful effect of lactones on L929 and AGS cells was assessed by the ability of the cells to reduce 3-(4,5-dimethylthiazol-2-yl)-2,5-diphenyltetrazolium bromide (MTT) to formazan. The solution of MTT (5 mg/mL in PBS), was added to each well and the plates were incubated for 4h at 37 ^∘ C. Formazan crystals were dissolved with acidic isopropanol (0.1 M HCl in absolute isopropanol) and the plates were read in a plate reader (Victor 2) at 570 nm. The percentage of MTT reduction was calculated by comparing the absorbance of treated cells to that of untreated control cells. Results are expressed as the mean percentage of viable cells ± standard deviation (SD) of four independent experiments. Statistical significance was accepted at a p-value < 0.05.
(Tetrazolium assays rely on reduction of a dye to a coloured formazan, in cell work by metabolically active cells.)
On to `C[C@@H]1CC(=O)O[C@H](c2cccc3ccccc23)[C@H]1Cl` (relative stereo) [5a, Trans,trans-5-chloro-tetrahydro-4-methyl-6-(naphthalen-1-yl)pyran-2-one], for which the viability at 24 h, 0.1 μg/mL stood at 54 ± 0.07%.

The same series, now with this note: human, AGS cells (human gastric adenocarcinoma), 0.5 μg/mL, 24 h, read-out: mean percentage of viable cells ± SD.
For the molecule `C[C@@H]1CC(=O)O[C@H](c2cccc3ccccc23)[C@H]1Cl` (relative stereo) [5a, Trans,trans-5-chloro-tetrahydro-4-methyl-6-(naphthalen-1-yl)pyran-2-one], the viability at 24 h, 0.5 μg/mL turned out to be 48 ± 0.05%.

Still in this series, the particulars now being: human, AGS cells (human gastric adenocarcinoma), 5 μg/mL, 24 h, read-out: mean percentage of viable cells ± SD.
Turning to `C[C@@H]1CC(=O)O[C@H](c2cccc3ccccc23)[C@H]1Cl` (relative stereo) [5a, Trans,trans-5-chloro-tetrahydro-4-methyl-6-(naphthalen-1-yl)pyran-2-one], the viability at 24 h, 5 μg/mL was 43 ± 0.09%.

Staying with this series, now noted: human, AGS cells (human gastric adenocarcinoma), 10 μg/mL, 24 h, read-out: mean percentage of viable cells ± SD.
Take `C[C@@H]1CC(=O)O[C@H](c2cccc3ccccc23)[C@H]1Cl` (relative stereo) [5a, Trans,trans-5-chloro-tetrahydro-4-methyl-6-(naphthalen-1-yl)pyran-2-one]: the viability at 24 h, 10 μg/mL worked out at 27 ± 0.1%.

Staying with this series, now noted: human, AGS cells (human gastric adenocarcinoma), 20 μg/mL, 24 h, read-out: mean percentage of viable cells ± SD.
Consider `C[C@@H]1CC(=O)O[C@H](c2cccc3ccccc23)[C@H]1Cl` (relative stereo) [5a, Trans,trans-5-chloro-tetrahydro-4-methyl-6-(naphthalen-1-yl)pyran-2-one], for which the viability at 24 h, 20 μg/mL stood at 18 ± 0.08%.

Still in this series, the particulars now being: human, AGS cells (human gastric adenocarcinoma), 50 μg/mL, 24 h, read-out: mean percentage of viable cells ± SD.
Turning to `C[C@@H]1CC(=O)O[C@H](c2cccc3ccccc23)[C@H]1Cl` (relative stereo) [5a, Trans,trans-5-chloro-tetrahydro-4-methyl-6-(naphthalen-1-yl)pyran-2-one], the viability at 24 h, 50 μg/mL is 15 ± 0.01%.

Another series has as its system AGS cell lines (human gastric adenocarcinoma). As to the kind of experiment: MTT reduction cytotoxicity assay. The series is classed as cell-based. The following applies: Homo sapiens. Here is the method:
as §2, §3
By IC50 is commonly meant the midpoint of a concentration-inhibition curve. Read a low IC50 as higher potency. For `C[C@@H]1CC(=O)O[C@H](c2cccc3ccccc23)[C@H]1Cl` (relative stereo) [5a, Trans,trans-5-chloro-tetrahydro-4-methyl-6-(naphthalen-1-yl)pyran-2-one], inhibition was half-maximal at 1.9 µM (IC50).

Test system in a further series: not listed separately
In words: MTT reduction cytotoxicity assay. The series is classed as cell-based, mouse. The following applies: mouse, L929 cells (mouse fibroblasts), 0.1 μg/mL, read-out: mean percentage of viable cells ± SD. Here is the method: as §2, §3
In the case of `C[C@@H]1CC(=O)O[C@H](c2cccc3ccccc23)[C@H]1Cl` (relative stereo) [5a, Trans,trans-5-chloro-tetrahydro-4-methyl-6-(naphthalen-1-yl)pyran-2-one], the viability at 24 h, 0.1 μg/mL is 17 ± 0.09%.

The series is the same for the next values; noted with them: mouse, L929 cells (mouse fibroblasts), 0.5 μg/mL, read-out: mean percentage of viable cells ± SD.
Turning to `C[C@@H]1CC(=O)O[C@H](c2cccc3ccccc23)[C@H]1Cl` (relative stereo) [5a, Trans,trans-5-chloro-tetrahydro-4-methyl-6-(naphthalen-1-yl)pyran-2-one], the viability at 24 h, 0.5 μg/mL is 15 ± 0.02%.

Staying with this series, now noted: mouse, L929 cells (mouse fibroblasts), 5 μg/mL, read-out: mean percentage of viable cells ± SD.
On to `C[C@@H]1CC(=O)O[C@H](c2cccc3ccccc23)[C@H]1Cl` (relative stereo) [5a, Trans,trans-5-chloro-tetrahydro-4-methyl-6-(naphthalen-1-yl)pyran-2-one], for which the viability at 24 h, 5 μg/mL turned out to be 10 ± 0.03%.

The series is the same for the next values; noted with them: mouse, L929 cells (mouse fibroblasts), 10 μg/mL, read-out: mean percentage of viable cells ± SD.
For the molecule `C[C@@H]1CC(=O)O[C@H](c2cccc3ccccc23)[C@H]1Cl` (relative stereo) [5a, Trans,trans-5-chloro-tetrahydro-4-methyl-6-(naphthalen-1-yl)pyran-2-one], the viability at 24 h, 10 μg/mL is 8 ± 0.07%.

The same series, now with this note: mouse, L929 cells (mouse fibroblasts), 20 μg/mL, read-out: mean percentage of viable cells ± SD.
`C[C@@H]1CC(=O)O[C@H](c2cccc3ccccc23)[C@H]1Cl` (relative stereo) [5a, Trans,trans-5-chloro-tetrahydro-4-methyl-6-(naphthalen-1-yl)pyran-2-one]: the viability at 24 h, 20 μg/mL was 5 ± 0.06%.

Still in this series, the particulars now being: mouse, L929 cells (mouse fibroblasts), 50 μg/mL, read-out: mean percentage of viable cells ± SD.
For the molecule `C[C@@H]1CC(=O)O[C@H](c2cccc3ccccc23)[C@H]1Cl` (relative stereo) [5a, Trans,trans-5-chloro-tetrahydro-4-methyl-6-(naphthalen-1-yl)pyran-2-one], the viability at 24 h, 50 μg/mL was 1 ± 0.01%.

Test system in another series: not given
Assay: not given
Settings: not given
For orientation: melting point means the temperature, or range, at which the solid turns liquid. Molecule `C[C@@H]1CC(=O)O[C@H](c2cccc3ccccc23)[C@H]1Cl` (relative stereo) [5a, Trans,trans-5-chloro-tetrahydro-4-methyl-6-(naphthalen-1-yl)pyran-2-one] had a melting point of 157 to 158 °C.
